Data as given in the supplement of paper PMC10307832.

What was measured:
Experiment in all cases: relative viability (nuclei count vs DMSO), 5 days (fraction); higher = more cells survive
Dasatinib + Lapatinib = compound: Cc1nc(Nc2ncc(C(=O)Nc3c(C)cccc3Cl)s2)cc(N2CCN(CCO)CC2)n1 [Dasatinib] + CS(=O)(=O)CCNCc1ccc(-c2ccc3ncnc(Nc4ccc(OCc5cccc(F)c5)c(Cl)c4)c3c2)o1 [Lapatinib] (partner 2 µM)
How it was run: (§1)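 Relative viability was taken as the ratio of nuclei in treated wells to nuclei in vehicle wells. Lung cancer cell lines in 1536-well plates received compounds by pin tool one day after seeding, either one drug alone or a fixed anchor-drug dose plus five library-drug doses (not always all listed) in √10 steps. Nuclei were counted on 4× images after 5 days of treatment, and values are medians of duplicate plates.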

XMD13-2 + Lapatinib = compound: C1CC1C(=O)NC2=NNC3=C2C=CC(=C3)C4=CC(=CC=C4)C(=O)NC5CC5 [XMD13-2] + CS(=O)(=O)CCNCc1ccc(-c2ccc3ncnc(Nc4ccc(OCc5cccc(F)c5)c(Cl)c4)c3c2)o1 [Lapatinib] (partner 2 µM)
How it was run: as §1

ALW-II-49-7 + Pemetrexed = compound: Cc1ccc(C(=O)Nc2cccc(C(F)(F)F)c2)cc1Nc1cncc(C(N)=O)c1 [ALW-II-49-7] + Nc1nc2[nH]cc(CCc3ccc(C(=O)N[C@@H](CCC(=O)O)C(=O)O)cc3)c2c(=O)[nH]1 [Pemetrexed] (partner 0.2 µM)
How it was run: as §1

Dasatinib + Pemetrexed = compound: Cc1nc(Nc2ncc(C(=O)Nc3c(C)cccc3Cl)s2)cc(N2CCN(CCO)CC2)n1 [Dasatinib] + Nc1nc2[nH]cc(CCc3ccc(C(=O)N[C@@H](CCC(=O)O)C(=O)O)cc3)c2c(=O)[nH]1 [Pemetrexed] (partner 0.2 µM)
How it was run: as §1

Cell Line | relative viability (Dasatinib + Lapatinib; first compound 0.005 µM) | relative viability (Dasatinib + Lapatinib; first compound 0.01581 µM) | relative viability (Dasatinib + Lapatinib; first compound 0.05 µM) | relative viability (Dasatinib + Lapatinib; first compound 0.1581 µM) | relative viability (Dasatinib + Lapatinib; first compound 0.5 µM) | relative viability (XMD13-2 + Lapatinib; first compound 0.05 µM) | relative viability (XMD13-2 + Lapatinib; first compound 0.1581 µM) | relative viability (XMD13-2 + Lapatinib; first compound 0.5 µM) | relative viability (XMD13-2 + Lapatinib; first compound 1.581 µM) | relative viability (XMD13-2 + Lapatinib; first compound 5 µM) | relative viability (ALW-II-49-7 + Pemetrexed; first compound 0.08 µM) | relative viability (ALW-II-49-7 + Pemetrexed; first compound 0.253 µM) | relative viability (ALW-II-49-7 + Pemetrexed; first compound 0.8 µM) | relative viability (ALW-II-49-7 + Pemetrexed; first compound 2.53 µM) | relative viability (ALW-II-49-7 + Pemetrexed; first compound 8 µM) | relative viability (Dasatinib + Pemetrexed; first compound 0.005 µM) | relative viability (Dasatinib + Pemetrexed; first compound 0.01581 µM) | relative viability (Dasatinib + Pemetrexed; first compound 0.05 µM) | relative viability (Dasatinib + Pemetrexed; first compound 0.1581 µM) | relative viability (Dasatinib + Pemetrexed; first compound 0.5 µM)
EBC-1 | 0.248 | 0.217 | 0.236 | 0.233 | 0.252 | 0.199 | 0.22 | 0.215 | 0.185 | 0.214 |  |  |  |  |  |  |  |  |  | 
EKVX | 0.205 | 0.165 | 0.149 | 0.123 | 0.0913 | 0.205 | 0.173 | 0.177 | 0.192 | 0.196 | 0.396 | 0.323 | 0.405 | 0.336 | 0.414 | 0.384 | 0.376 | 0.335 | 0.371 | 0.152
EMC-BAC-2 | 0.936 | 0.708 | 0.613 | 0.667 | 0.334 | 1.03 | 0.866 | 0.92 | 0.879 | 0.532 | 0.448 | 0.455 | 0.409 | 0.456 | 0.403 | 0.455 | 0.42 | 0.405 | 0.345 | 0.273
EPLC-272H | 0.866 | 0.913 | 0.938 | 0.79 | 0.346 | 1.09 | 0.897 | 1.01 | 0.817 | 0.911 | 0.315 | 0.382 | 0.289 | 0.34 | 0.206 | 0.385 | 0.356 | 0.286 | 0.154 | 0.198
H3255 | 0.303 | 0.212 | 0.208 | 0.155 | 0.204 | 0.444 | 0.223 | 0.297 | 0.199 | 0.201 | 0.623 | 0.579 | 0.576 | 0.566 | 0.489 | 0.578 | 0.535 | 0.52 | 0.49 | 0.375
HARA | 0.851 | 0.701 | 0.505 | 0.201 | 0.137 | 0.825 | 0.886 | 0.699 | 0.711 | 0.538 | 0.235 | 0.288 | 0.247 | 0.277 | 0.218 | 0.241 | 0.234 | 0.229 | 0.202 | 0.151
HCC-15 | 0.887 | 0.942 | 0.846 | 0.764 | 0.658 | 0.983 | 0.761 | 0.918 | 0.801 | 0.519 | 0.214 | 0.227 | 0.228 | 0.227 | 0.241 | 0.198 | 0.207 | 0.209 | 0.203 | 0.205
HCC-44 | 1.03 | 0.942 | 1.07 | 0.844 | 0.555 | 1.01 | 1.12 | 1.08 | 0.957 | 0.771 | 0.683 | 0.662 | 0.617 | 0.664 | 0.673 | 0.627 | 0.579 | 0.692 | 0.709 | 0.633
